Assay results from patent US8101198B2, “Osteogenic enhancer composition” (The Regents of the University of California, priority 2007, dated 2012).

How the values were obtained:
osteoblastic culture = assay: Gene expression analysis of bone-related genes by RT-PCR (Example 1); assay type: cell-based, rat; details: relative to GAPDH
Description: Bone marrow cells isolated from the femur of 8-week-old male Sprague-Dawley rats were placed into alpha-modified Eagle's medium supplemented with 15% fetal bovine serum, 50 µg/ml ascorbic acid, 10^−8M dexamethasone, 10 mM Na-β-glycerophosphate and Antibiotic-antimycotic solution containing 10,000 units/ml Penicillin G sodium, 10,000 mg/ml Streptomycin sulfate and 25 mg/ml Amphotericin B. Cells were incubated in a humidified atmosphere of 95% air, 5% CO2 at 37° C. At 80% confluency, the cells were detached using 0.25% Trypsin-1 mM EDTA-4Na and seeded either the polystyrene dish with or without NAC addition, bone substitute material (demineralized bone matrix, Orthoblast, IsoTis OrthoBiologics, Inc. Irvine, Calif.), collagen gel (PureCol, Inamed, Fremont, Calif.) or bone cement (Endurance MV, DePuy Orthopaedics, Warsaw, Ind.) with or without NAC incorporation at a density of 4×10^4 cells/cm^2. The culture medium was renewed every three days. The NAC incorporated bone graft substitute and collagen membrane materials were prepared by soaking each of the materials in NAC for 24 hours. The NAC-incorporated collagen gel was prepared by mixing the collagen gel and NAC. The expression of bone-related genes was analyzed using the reverse transcription-polymerase chain reaction (RT-PCR). Total RNA in the cultures was extracted using TRIzol (Invitrogen, Carlsbad, Calif.) and purification column (RNeasy, Qiagen, Valencia, Calif.). Following DNAse I treatment, reverse transcription of 0.5 μg of total RNA was performed using MMLV reverse transcriptase (Clontech, Carlsbad, Calif.) in the presence of oligo(dT) primer (Clontech, Carlsbad, Calif.). The PCR reaction was performed using Taq DNA polymerase (EX Taq, Takara Bio, Madison, Wis.) to detect alpha-I type I collagen (collagen I), osteopontin, and osteocalcin mRNA. The primer sequences and PCR conditions are described previously. Resulting products were visualized on 1.5% agarose gel with ethidium bromide staining. The intensity of bands was quantified under UV light, and the values were normalized with reference to GAPDH mRNA.

rat osteoblastic cells [1] = assay: Mineralization assays, Von Kossa and Alizarin Red stain (Example 1); assay type: cell-based; details: NAC added into culture medium, day 14; dose-dependent; p<0.001
Description: Bone marrow cells isolated from the femur of 8-week-old male Sprague-Dawley rats were placed into alpha-modified Eagle's medium supplemented with 15% fetal bovine serum, 50 µg/ml ascorbic acid, 10^−8M dexamethasone, 10 mM Na-β-glycerophosphate and Antibiotic-antimycotic solution containing 10,000 units/ml Penicillin G sodium, 10,000 mg/ml Streptomycin sulfate and 25 mg/ml Amphotericin B. Cells were incubated in a humidified atmosphere of 95% air, 5% CO2 at 37° C. At 80% confluency, the cells were detached using 0.25% Trypsin-1 mM EDTA-4Na and seeded either the polystyrene dish with or without NAC addition, bone substitute material (demineralized bone matrix, Orthoblast, IsoTis OrthoBiologics, Inc. Irvine, Calif.), collagen gel (PureCol, Inamed, Fremont, Calif.) or bone cement (Endurance MV, DePuy Orthopaedics, Warsaw, Ind.) with or without NAC incorporation at a density of 4×10^4 cells/cm^2. The culture medium was renewed every three days. The NAC incorporated bone graft substitute and collagen membrane materials were prepared by soaking each of the materials in NAC for 24 hours. The NAC-incorporated collagen gel was prepared by mixing the collagen gel and NAC. […] (%) was measured using a digitized image analysis system (Image Pro-plus, Media Cybernetics, MD). Three independent cultures were evaluated in each of the experimental groups.

rat osteoblastic cells [2] = assay: Alkaline phosphatase (ALP) stain of osteoblastic culture (Example 1); assay type: cell-based; details: NAC added into osteoblastic culture, day 7; dose-dependent up to 5 mM; p<0.001 vs without NAC
Description: Bone marrow cells isolated from the femur of 8-week-old male Sprague-Dawley rats were placed into alpha-modified Eagle's medium supplemented with 15% fetal bovine serum, 50 µg/ml ascorbic acid, 10^−8M dexamethasone, 10 mM Na-β-glycerophosphate and Antibiotic-antimycotic solution containing 10,000 units/ml Penicillin G sodium, 10,000 mg/ml Streptomycin sulfate and 25 mg/ml Amphotericin B. Cells were incubated in a humidified atmosphere of 95% air, 5% CO2 at 37° C. At 80% confluency, the cells were detached using 0.25% Trypsin-1 mM EDTA-4Na and seeded either the polystyrene dish with or without NAC addition, bone substitute material (demineralized bone matrix, Orthoblast, IsoTis OrthoBiologics, Inc. Irvine, Calif.), collagen gel (PureCol, Inamed, Fremont, Calif.) or bone cement (Endurance MV, DePuy Orthopaedics, Warsaw, Ind.) with or without NAC incorporation at a density of 4×10^4 cells/cm^2. The culture medium was renewed every three days. The NAC incorporated bone graft substitute and collagen membrane materials were prepared by soaking each of the materials in NAC for 24 hours. The NAC-incorporated collagen gel was prepared by mixing the collagen gel and NAC. […] The stained images were analyzed for ALP positive area defined as [(stained area/total dish area)×100)] […] Three independent cultures were evaluated in each the experimental groups.

## CC(=O)N[C@@H](CS)C(=O)O [NAC, N-acetyl cysteine]
Osteoblastic culture; NAC addition to the culture
  gene expression level of Bmp2: significantly elevated
  gene expression level of Runx2/cbfa1: significantly elevated
Osteoblastic culture; culture with NAC, early stage of day 3
  osteocalcin expression: upregulated
Osteoblastic culture; culture with NAC, up to day 14
  expression of collagen I: upregulated
  expression of osteopontin: upregulated
Rat osteoblastic cells [1]
  Von Kossa positive area (mineralizing capability): significantly increased
Rat osteoblastic cells [2]
  alkaline phosphatase activity (ALP positive area): increased
